Values quoted from earlier work as cited in patent publication US8476259B2, “Fasudil in combination therapies for the treatment of pulmonary arterial hypertension” (Asahi Kasei Pharma Corporation, priority 2005, dated 2013).
Like-named read-outs stand apart in the source and are kept apart here. Blank lines part the entries; values can stand above or below the molecule they belong to.

Experiments:
[1] = in vivo
patients with severe PAH = conditions: versus placebo
Rho-kinase [2] = conditions: read-out: K(i) value for Rho-kinase
[3] = tested on: progressive pulmonary arterial hypertension; conditions: two experimental models
Rho-kinase [4] = conditions: administered to rats
[5] = tested on: patients with pulmonary hypertension; conditions: aerosolization
[6] = tested on: monocrotaline-induced PH in rats; conditions: for pulmonary arterial lesions: intravenous or oral treatment
rats injected with IL-6 = conditions: simultaneous treatment
[7] = tested on: spontaneously hypertensive rats; conditions: rat, in vivo
[8] = tested on: patients with Raynaud's phenomenon and systemic sclerosis; conditions: human, in vivo
[9] = tested on: patients with angiographically proven stable angina
chronically hypoxic rats = conditions: for high pulmonary arterial pressure: intravenous or oral treatment
chronic hypoxic mice = conditions: for development of chronic hypoxia-induced PH: intravenous or oral treatment
[10] = tested on: pulmonary hypertension in rats; conditions: for pulmonary vasodilation: spontaneous PH in fawn-hooded rats
[11] = tested on: rat models of systemic hypertension; conditions: oral
[12] = tested on: patients with severe pulmonary hypertension; conditions: intravenous
PAH = conditions: oral
[13] = all 20 patients, 100 mg 3 times a day, 2 weeks
[14] = subgroup (n=8) with well-developed collaterals
[15] = inhaled, monocrotaline-induced PH, chronically hypoxic rats

Structure (SMILES): Cc1cc2c(cc1CC(=O)c1sccc1S(=O)(=O)Nc1onc(C)c1Cl)OCO2 [sitaxsentan]
decrease in pulmonary vascular resistance [1]: 30%
six minute walk test [1]: improvement

Structure (SMILES): CC#CCC(C)[C@H](O)/C=C/[C@@H]1[C@H]2C/C(=C/CCCC(=O)O)C[C@H]2C[C@H]1O (some centres unmarked) [iloprost]
exercise capacity (patients with severe PAH): improved exercise capacity

Structure (SMILES): Cc1cncc2cccc(S(=O)(=O)N3CCCNC[C@@H]3C)c12 [H-1152P, (S)-(+)-2-methyl-1-[(4-methyl-5-isoquinoline)sulfonyl]-homopiperazine]
Ki (Rho-kinase [2]): 1.6 nM

Structure (SMILES): Cc1ccc(NC(=O)c2ccc(CN3CCN(C)CC3)cc2)cc1Nc1nccc(-c2cccnc2)n1 [Gleevec]
lung vascular remodeling, pulmonary hypertension and right heart hypertrophy [3]: virtually complete reversal

inhibitory effect on Rho-kinase (Rho-kinase [4]): lack the inhibitory effect on Rho-kinase
Structure (SMILES): CCCCC[C@H](O)/C=C/[C@@H]1[C@H]2C/C(=C/CCCC(=O)O)O[C@H]2C[C@H]1O [prostacyclin]
duration of effects [5]: 15 min

Structure (SMILES): COc1cccc(CCc2ccccc2OCC(CN(C)C)OC(=O)CCC(=O)O)c1 (centres unmarked) [sarpogrelate, (φ-amino-alkoxy)phenyl-ethylethylbenzene]
pulmonary vascular remodeling, right side heart failure and mortality ([6]; immediately following monocrotaline injection): suppressed the severe pulmonary vascular remodeling and right side heart failure and reduced mortality
reversal of established pulmonary hypertension ([6]; late treatment): failed to reverse established pulmonary hypertension
number of proliferating cell nuclear antigen-positive cells ([6]; rat, in vivo): reduced
severity of pulmonary hypertension (medial thickness of small pulmonary arteries and right ventricle/left ventricle and septum ratio) ([6]; rat, in vivo): reduced
thickening of the alveolar walls and interstitial inflammatory cell infiltration ([6]; rat, in vivo): reduced
IL-6-induced increase in medial thickness of small pulmonary arteries and right ventricular hypertrophy (rats injected with IL-6): prevented
systolic blood pressure or heart weight [7]: no effect
respiratory failure and mean pulmonary arterial pressure [8]: significantly decreased
SAS score [9, 13]: significantly increased
exercise time to the onset of 0.1-mV ST depression [9, 13]: prolonged
all parameters ([9]; patients (n=12) without well-developed collaterals): not significantly changed
SAS score [9, 14]: 6.2±1.3 METS
increase of double product at the onset of 0.1-mV ST depression [9, 14]: 15%
time to the onset of 0.1-mV ST depression [9, 14]: 295 ± 127 s

Structure (SMILES): CCCc1nn(C)c2c(=O)[nH]c(-c3cc(S(=O)(=O)N4CCN(C)CC4)ccc3OCC)nc12 [sildenafil]
pulmonary arterial pressure (chronically hypoxic rats; sildenafil, chronic hypoxic rats): reduces
right ventricular hypertrophy (chronic hypoxic mice; chronic hypoxic mice): reduces right ventricular hypertrophy
survival rate ([6]; PH induced by monocrotaline injection): improves survival rate

Structure (SMILES): COc1ccccc1Oc1c(NS(=O)(=O)c2ccc(C(C)(C)C)cc2)nc(-c2ncccn2)nc1OCCO [bosentan]
liver toxicity (higher dose): liver toxicity occurred with the higher dose
six minute walk test (whole group, greater improvement at higher doses): improved

Structure (SMILES): C[C@@H](N)[C@H]1CC[C@H](C(=O)Nc2ccncc2)CC1 [Y-27632]
mean pulmonary arterial pressure ([10]; 5 minutes of inhaled Y-27632): decreased mean pulmonary arterial pressure without reducing mean systemic arterial pressure
duration of hypotensive effect on hypoxic pulmonary hypertension ([10]; inhaled): at least 5 hrs
pulmonary vasodilation [10, 15]: sustained and selective pulmonary vasodilation
elevated pulmonary artery pressure, acute effect (chronically hypoxic rats; intravenous): nearly normalized the elevated pulmonary artery pressure
high pulmonary arterial pressure (chronically hypoxic rats): nearly normalizes
development of chronic hypoxia-induced PH (chronic hypoxic mice): attenuates
pulmonary arterial lesions [6]: reduces pulmonary arterial lesions
hypotensive effect ([11]; normotensive rats): smaller transient effect
hypotensive effect ([11]; rat models of systemic hypertension): potent hypotensive effects

Structure (SMILES): O=S(=O)(c1cccc2cnccc12)N1CCCNCC1 [fasudil, 1-(5-isoquinolinesulfonyl)-homopiperazine]
mean pulmonary arterial pressure ([10]; inhaled fasudil, monocrotaline-induced PH, spontaneous PH, chronically hypoxic rats): selective mean pulmonary arterial pressure reductions
pulmonary vasodilation [10, 15]: sustained and selective pulmonary vasodilation
high pulmonary arterial pressure (chronically hypoxic rats): nearly normalizes
development of chronic hypoxia-induced PH (chronic hypoxic mice): attenuates
pulmonary arterial lesions [6]: reduces pulmonary arterial lesions
pulmonary vascular resistance [12]: significantly reduced
side effects [12]: without side effects

inhibitory effect on Rho-kinase (Rho-kinase [4]): lack the inhibitory effect on Rho-kinase
Structure (SMILES): CC#CCC(C)[C@H](O)/C=C/[C@@H]1[C@H]2c3cccc(CCCC(=O)O)c3O[C@H]2C[C@H]1O (mixture of isomers) [beraprost]
benefit in PAH over time (PAH): benefit in a study in PAH at 3 and 6 months but not at 9 or 12 months
